This is an account of results in patent publication US4994477A, “Heterocyclic renin inhibitors” (Abbott Laboratories, priority 1988, dated 1991).

This experiment concerns the target T1, human renal renin (Homo sapiens, UniProt P00797).
T1 construct: human renal renin, free from acid proteolytic activity; from tissue; host or cells: human kidney (from the word 'renal')
T1 sequence (P00797 67-406): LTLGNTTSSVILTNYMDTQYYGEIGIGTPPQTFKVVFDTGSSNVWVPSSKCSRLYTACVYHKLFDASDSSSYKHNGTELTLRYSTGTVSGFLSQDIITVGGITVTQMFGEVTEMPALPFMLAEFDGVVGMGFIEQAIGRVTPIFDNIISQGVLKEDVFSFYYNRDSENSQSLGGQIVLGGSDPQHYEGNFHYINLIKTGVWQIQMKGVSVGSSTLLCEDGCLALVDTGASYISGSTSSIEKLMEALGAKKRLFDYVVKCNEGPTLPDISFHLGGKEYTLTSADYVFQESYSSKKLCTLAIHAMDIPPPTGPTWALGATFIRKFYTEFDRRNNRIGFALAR
Put plainly: inhibition of human renal renin in vitro, angiotensin I formed measured by radioimmunoassay. Type of experiment: biochemical. Conditions: human angiotensinogen substrate, 37 degrees C, pH 6.0. Here is the method:
At the end of the incubation, the amount of angiotensin I formed is measured by radioimmunoassay and the molar concentration required to cause 50% inhibition, expressed as the IC50, is calculated.

Structures are written as SMILES. pIC50: −log10 of the molar value.

For orientation: pIC50 means the negative decadic logarithm of the IC50, by convention in mol/L. As to `COCOC[C@H](NC(=O)c1cc2ccccc2[nH]1)C(=O)N[C@@H](CC1CCCCC1)[C@@H](O)[C@@H](O)CC(C)C` [Example 150, N-(Indolyl-2-carbonyl)-(O-methoxymethyl)Ser Amide of 2(S)-Amino-1-cyclohexyl-3(R),4(S)-dihydroxy-6-methylheptane], the negative logarithm of the IC50 (pIC50) was 7.57.

`CC(C)C[C@H](O)[C@H](O)[C@H](CC1CCCCC1)NC(=O)[C@H](Cc1c[nH]cn1)NC(=O)c1ccc2ccccc2c1` [Example 151, N-(2-Napthoyl)-His Amide of 2(S)-Amino-1-cyclohexyl-3(R),4(S)-dihydroxy-6-methylheptane]: the negative-log IC50 (pIC50) was 7.49.
